{"source": "patent US8952024B2", "about": "“Herbicidal pyrimidone derivatives” (E I du Pont de Nemours and Company, priority 2009, dated 2015)", "type_in_all_cases": "in vivo", "key": {"[1]": {"tested_on": "barnyardgrass (Echinochloa crus-galli)", "assay": "Test A pre-/postemergence plant response", "in_short": "(§1)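 Visually rated 0–100 injury (100 = complete control) versus untreated plants, ~10 days in greenhouse. Application pre- (soil spray, loam/sand) and postemergence (2–10 cm, 1–2 leaf stage), same timepoint.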"}, "corn (Zea mays)": {"tested_on": "corn (Zea mays)", "assay": "Test A pre-/postemergence plant response", "in_short": "as §1"}, "[2]": {"tested_on": "giant foxtail (Setaria faberii)", "assay": "Test A pre-/postemergence plant response", "in_short": "as §1"}, "[3]": {"tested_on": "large crabgrass (Digitaria sanguinalis)", "assay": "Test A pre-/postemergence plant response", "in_short": "as §1"}, "[4]": {"tested_on": "morningglory (Ipomoea spp.)", "assay": "Test A pre-/postemergence plant response", "conditions": "for Plant response rating, Morningglory: 125 g ai/ha", "in_short": "as §1"}, "[5]": {"tested_on": "pigweed (Amaranthus retroflexus)", "assay": "Test A pre-/postemergence plant response", "in_short": "as §1"}, "[6]": {"tested_on": "velvetleaf (Abutilon theophrasti)", "assay": "Test A pre-/postemergence plant response", "in_short": "as §1"}, "[7]": {"tested_on": "wheat (Triticum aestivum)", "assay": "Test A pre-/postemergence plant response", "in_short": "as §1"}, "[8]": {"tested_on": "barnyardgrass (Echinochloa crus-galli)", "assay": "Test B flooded paddy test", "conditions": "for Plant response rating, Barnyardgrass: Flood (flooded paddy test), 13 to 15 days", "in_short": "(§2)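 Plants were grown to the 2-leaf stage, then pots were flooded to 3 cm above the soil and compounds were applied directly into the paddy water. That depth was held throughout. After 13 to 15 days in a greenhouse, injury was visually rated against controls on a 0–100 scale.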"}, "[9]": {"tested_on": "ducksalad (Heteranthera limosa)", "assay": "Test B flooded paddy test", "conditions": "for Plant response rating, Ducksalad: Flood (flooded paddy test), 13 to 15 days", "in_short": "as §2"}, "rice (Oryza sativa)": {"tested_on": "rice (Oryza sativa)", "assay": "Test B flooded paddy test", "conditions": "for Plant response rating, Rice: Flood (flooded paddy test), 13 to 15 days", "in_short": "as §2"}, "[10]": {"tested_on": "umbrella sedge (Cyperus difformis)", "assay": "Test B flooded paddy test", "conditions": "for Plant response rating, Sedge, Umbrella: Flood (flooded paddy test), 13 to 15 days", "in_short": "as §2"}, "[11]": {"tested_on": "Russian thistle (Salsola iberica)", "assay": "Test F combination of compound 2 with bromoxynil, postemergence", "conditions": "15 days, mean of three replicates, scale 0 to 100", "method": "Test F evaluated the effect of combining compound 2 with bromoxynil. The test species for this experiment was Russian thistle (Salsola iberica), which was prepared by sowing seeds into a blend of loam soil and sand. Test chemicals were formulated in a non-phytotoxic solvent mixture that included a surfactant and applied postemergence to plants ranging in height from 12 to 20 cm. […] Treatments consisted of Compound 2, bromoxynil, or their combination, using a spray volume of 457 L/ha. Each treatment was replicated three times. Treated plants and untreated controls were maintained in a greenhouse for 15 days, after which time all plants were visually evaluated and compared to the untreated controls. […] Colby's Equation was used to determine the herbicidal effects expected from the mixtures. Colby's Equation (Colby, S."}, "[12]": {"conditions": "Postemergence, 125 g ai/ha, 0 to 100 scale where 0 is no effect and 100 is complete control"}, "[13]": {"conditions": "Postemergence, 500 g ai/ha, visual injury, 0 to 100 scale (0 no effect, 100 complete control), approx. ten days"}, "[14]": {"conditions": "Preemergence, 125 g ai/ha, 0 to 100 scale where 0 is no effect and 100 is complete control, approximately ten days"}, "[15]": {"conditions": "Preemergence, 500 g ai/ha, 0 to 100 scale, 0 = no effect, 100 = complete control"}, "[16]": {"conditions": "Postemergence, 125 g ai/ha, visual injury, 0 to 100 scale (0 no effect, 100 complete control), approx. ten days"}, "[17]": {"conditions": "250 g ai/ha, flooded paddy test, visual rating on 0 to 100 scale (0 no effect, 100 complete control) after 13 to 15 days"}, "[18]": {"conditions": "62 g ai/ha, scale of 0 to 100 where 0 is no effect and 100 is complete control"}, "[19]": {"conditions": "125 g ai/ha, scale 0 to 100, 0 is no effect, 100 is complete control"}, "[20]": {"conditions": "Flood, 31 g ai/ha, scale 0 to 100 (0 no effect, 100 complete control)"}}}
{"smiles": "C#Cc1ccc(-c2ncc(C(=O)C3=C(O)C4CCC(C4)C3=O)c(=O)n2C2CCCCC2)cc1", "note": "(stereo not shown) [Compound 254]", "values": [{"measurement": "Plant response rating, Barnyardgrass", "setting": "[1]; [12]", "value": 0}, {"measurement": "Barnyardgrass plant response rating", "setting": "[1]; [13]", "value": 90}, {"measurement": "Plant response rating, Barnyardgrass", "setting": "[1]; [14]", "value": 0}, {"measurement": "Plant response rating, Barnyardgrass", "setting": "[1]; [15]", "value": 10}, {"measurement": "Plant response rating, Corn", "setting": "corn (Zea mays); [12]", "value": 0}, {"measurement": "Corn plant response rating", "setting": "corn (Zea mays); [13]", "value": 10}, {"measurement": "Plant response rating, Corn", "setting": "corn (Zea mays); [14]", "value": 0}, {"measurement": "Plant response rating, Corn", "setting": "corn (Zea mays); [15]", "value": 0}, {"measurement": "Plant response rating, Foxtail, Giant", "setting": "[2]; [16]", "value": 10}, {"measurement": "Foxtail, Giant plant response rating", "setting": "[2]; [13]", "value": 50}, {"measurement": "Plant response rating, Foxtail, Giant", "setting": "[2]; [14]", "value": 0}, {"measurement": "Plant response rating, Foxtail, Giant", "setting": "[2]; [15]", "value": 30}, {"measurement": "Plant response rating, Crabgrass, Large", "setting": "[3]; [12]", "value": 20}, {"measurement": "Crabgrass, Large plant response rating", "setting": "[3]; [13]", "value": 70}, {"measurement": "Plant response rating, Crabgrass, Large", "setting": "[3]; [14]", "value": 0}, {"measurement": "Plant response rating, Crabgrass, Large", "setting": "[3]; [15]", "value": 50}, {"measurement": "Plant response rating, Morningglory", "setting": "[4]; Postemergence, visual injury, 0 to 100 scale (0 no effect, 100 complete control), approx. ten days", "value": 20}, {"measurement": "Morningglory plant response rating", "setting": "[4]; [13]", "value": 50}, {"measurement": "Plant response rating, Morningglory", "setting": "[4]; Preemergence, 0 to 100 scale where 0 is no effect and 100 is complete control, approximately ten days", "value": 0}, {"measurement": "Plant response rating, Pigweed", "setting": "[5]; [16]", "value": 60}, {"measurement": "Pigweed plant response rating", "setting": "[5]; [13]", "value": 90}, {"measurement": "Plant response rating, Pigweed", "setting": "[5]; [14]", "value": 0}, {"measurement": "Plant response rating, Pigweed", "setting": "[5]; [15]", "value": 0}, {"measurement": "Plant response rating, Velvetleaf", "setting": "[6]; [16]", "value": 50}, {"measurement": "Velvetleaf plant response rating", "setting": "[6]; [13]", "value": 90}, {"measurement": "Plant response rating, Velvetleaf", "setting": "[6]; [14]", "value": 0}, {"measurement": "Plant response rating, Velvetleaf", "setting": "[6]; [15]", "value": 20}, {"measurement": "Plant response rating, Wheat", "setting": "[7]; [16]", "value": 0}, {"measurement": "Wheat plant response rating", "setting": "[7]; [13]", "value": 0}, {"measurement": "Plant response rating, Wheat", "setting": "[7]; [14]", "value": 0}, {"measurement": "Plant response rating, Wheat", "setting": "[7]; [15]", "value": 0}, {"measurement": "Plant response rating, Flood, Barnyardgrass", "setting": "[8]; [17]", "value": 15}, {"measurement": "Plant response rating, Barnyardgrass", "setting": "[8]; [18]", "value": 0}, {"measurement": "Plant response rating, Barnyardgrass", "setting": "[8]; [19]", "value": 10}, {"measurement": "Barnyardgrass plant response rating", "setting": "[8]; [20]", "value": 0}, {"measurement": "Plant response rating, Flood, Ducksalad", "setting": "[9]; [17]", "value": 100}, {"measurement": "Plant response rating, Ducksalad", "setting": "[9]; [18]", "value": 85}, {"measurement": "Plant response rating, Ducksalad", "setting": "[9]; [19]", "value": 85}, {"measurement": "Ducksalad plant response rating", "setting": "[9]; [20]", "value": 45}, {"measurement": "Plant response rating, Flood, Rice", "setting": "rice (Oryza sativa); [17]", "value": 0}, {"measurement": "Plant response rating, Rice", "setting": "rice (Oryza sativa); [18]", "value": 0}, {"measurement": "Plant response rating, Rice", "setting": "rice (Oryza sativa); [19]", "value": 0}, {"measurement": "Rice plant response rating", "setting": "rice (Oryza sativa); [20]", "value": 0}, {"measurement": "Plant response rating, Flood, Sedge, Umbrella", "setting": "[10]; [17]", "value": 80}, {"measurement": "Plant response rating, Sedge, Umbrella", "setting": "[10]; [18]", "value": 50}, {"measurement": "Plant response rating, Sedge, Umbrella", "setting": "[10]; [19]", "value": 75}, {"measurement": "Sedge, Umbrella plant response rating", "setting": "[10]; [20]", "value": 30}]}
{"smiles": "N#Cc1cc(Br)c(O)c(Br)c1", "note": "[bromoxynil, reference compound]", "values": [{"measurement": "Russian Thistle Obsd. (observed effect)", "setting": "[11]; Bromoxynil 70 g a.i./ha alone", "value": 8}, {"measurement": "Russian Thistle Obsd. (observed effect)", "setting": "[11]; Bromoxynil 140 g a.i./ha alone", "value": 13}]}
